According to patent US8552026B2, “Isatin derivatives, medicaments containing the isatin derivatives and method for its preparation” (King Saud University, priority 2011, dated 2013):
In brackets after ≈: the same amount, converted by molar mass.

Experiments:
Assay in all cases: In vitro anti-TB activity, agar dilution method
Format in all cases: cell-based
[1] = system: Mycobacterium intercellulari (ATCC35743); conditions: for MIC: Mycobacterium, ATCC35743, agar dilution, 35° C., 48 hours, read-out: MIC (μg/ml)/Mycobacterium strain M. intercellulari
Protocol: (§1) The anti-TB activity of the synthesized compound was tested using the agar dilution method, see T. Aboul-Fadl, F. A. Mohammed, E. A. Hassan, Arch. Pharm. Res. 26 (2003) 778-784 and NCCLS Susceptibility Testing of Mycobacteria, Nocardia, and Other Aerobic Actinomycetes; Tentative Standard NCCLS document M24-T2 [ISBN 1-56238-423-6], second ed., NCCLS, 960 West Valley Road, Suite 1400, Wayne, Pa. 2000, 19087-1898, USA.
(§2) The synthesized compound was solubilized in DMSO at a concentration of 1 mg/ml. Appropriate amount was diluted first with 10% molten agar to give a concentration of 200 μg/ml. Further dilutions for the active compound were done to give 100, 50, 25, 12.5, 6.25 and up to 0.625 μg/ml. The agar and the compound solution were mixed thoroughly and the mixture was poured in Petri-dishes on a level surface to result in an agar depth of 3-4 mm and allowed to harden. The incula were prepared by growing overnight culture in Mueller-Hinton broth. The cultures were diluted 1:100. Test organisms were streaked in a radial pattern and plates were incubated at 35° C. for 48 hours. Control experiments consisted of the tested TB strains, DMSO and the growing media were treated in the same manner. Complete […] of growth was observed prior to declaring the compound to be active. The synthesized compound was evaluated for the antimycobacterial activity in vitro again four Mycobacterium strains: Mycobacterium intercellulari (ATCC35743), Mycobacterium xenopi (ATCC 14470), Mycobacterium cheleneo (ATCC 35751) and Mycobacterium smegmatis (ATCC 35797) by the agar dilution method. Isoniazid (INH) was used as a reference drug and control experiments done using a growth media free from drugs or the tested compound. Results of the in vitro antitubercular activity on the tested compound along with standard drug for comparison are given in table 1.

[2] = system: Mycobacterium cheleneo (ATCC 35751); conditions: ATCC35751, 35° C., 48 hours, read-out: MIC (μg/ml)/Mycobacterium strain M. cheleneo
Protocol: as §1, §2

[3] = system: Mycobacterium xenopi (ATCC 14470); conditions: ATCC14470, 35° C., 48 hours, read-out: MIC (μg/ml)/Mycobacterium strain M. xenopi
Protocol: as §1, §2

[4] = system: Mycobacterium smegmatis (ATCC 35797); conditions: Mycolicibacterium smegmatis, ATCC35797, 35° C., 48 hours, read-out: MIC (μg/ml)/Mycobacterium strain M. smegmatis
Protocol: as §1, §2

SMILES	MIC [1] [µg/mL]	MIC [2] [µg/mL]	MIC [3] [µg/mL]	MIC [4] [µg/mL]	potency relative to INH in vitro ([1]; antitubercular activity screening, all four strains, versus first line drug INH) [times]
NNC(=O)c1ccncc1 [INH, Isoniazid, reference compound]	12.5 (≈ 91.1 µM)	12.5 (≈ 91.1 µM)	12.5 (≈ 91.1 µM)	12.5 (≈ 91.1 µM)	–
CCn1cc(C(=O)NN=C2C(=O)N(Cc3ccccc3)c3ccccc32)c(=O)c2ccc(C)nc21 [R = H; R1 = H, N′-(1-benzyl-2-oxoindolin-3-ylidene)-1-ethyl-1,4-dihydro-7-methyl-4-oxo-1,8-naphthyridine-3-carbohydrazid]	0.625 (≈ 1.34 µM)	0.625 (≈ 1.34 µM)	0.625 (≈ 1.34 µM)	0.625 (≈ 1.34 µM)	20
